One experiment concerns the target IKKε (Homo sapiens (Human), UniProt Q14164). The experiment is described as follows: IKKε TR-FRET enzymatic assay. It counts as biochemical. The following applies: read-out: IKKe IC50. (In general: TR-FRET usually uses a lanthanide donor and a delayed reading to cut background.)
In a further experiment the target is hJAK2 (Homo sapiens (Human), UniProt O60674). In words: hJAK2 LANCE TR-FRET enzymatic assay. The class given is biochemical. To be noted: read-out: JAK2 IC50.
Sequence of hJAK2 (O60674 whole entry): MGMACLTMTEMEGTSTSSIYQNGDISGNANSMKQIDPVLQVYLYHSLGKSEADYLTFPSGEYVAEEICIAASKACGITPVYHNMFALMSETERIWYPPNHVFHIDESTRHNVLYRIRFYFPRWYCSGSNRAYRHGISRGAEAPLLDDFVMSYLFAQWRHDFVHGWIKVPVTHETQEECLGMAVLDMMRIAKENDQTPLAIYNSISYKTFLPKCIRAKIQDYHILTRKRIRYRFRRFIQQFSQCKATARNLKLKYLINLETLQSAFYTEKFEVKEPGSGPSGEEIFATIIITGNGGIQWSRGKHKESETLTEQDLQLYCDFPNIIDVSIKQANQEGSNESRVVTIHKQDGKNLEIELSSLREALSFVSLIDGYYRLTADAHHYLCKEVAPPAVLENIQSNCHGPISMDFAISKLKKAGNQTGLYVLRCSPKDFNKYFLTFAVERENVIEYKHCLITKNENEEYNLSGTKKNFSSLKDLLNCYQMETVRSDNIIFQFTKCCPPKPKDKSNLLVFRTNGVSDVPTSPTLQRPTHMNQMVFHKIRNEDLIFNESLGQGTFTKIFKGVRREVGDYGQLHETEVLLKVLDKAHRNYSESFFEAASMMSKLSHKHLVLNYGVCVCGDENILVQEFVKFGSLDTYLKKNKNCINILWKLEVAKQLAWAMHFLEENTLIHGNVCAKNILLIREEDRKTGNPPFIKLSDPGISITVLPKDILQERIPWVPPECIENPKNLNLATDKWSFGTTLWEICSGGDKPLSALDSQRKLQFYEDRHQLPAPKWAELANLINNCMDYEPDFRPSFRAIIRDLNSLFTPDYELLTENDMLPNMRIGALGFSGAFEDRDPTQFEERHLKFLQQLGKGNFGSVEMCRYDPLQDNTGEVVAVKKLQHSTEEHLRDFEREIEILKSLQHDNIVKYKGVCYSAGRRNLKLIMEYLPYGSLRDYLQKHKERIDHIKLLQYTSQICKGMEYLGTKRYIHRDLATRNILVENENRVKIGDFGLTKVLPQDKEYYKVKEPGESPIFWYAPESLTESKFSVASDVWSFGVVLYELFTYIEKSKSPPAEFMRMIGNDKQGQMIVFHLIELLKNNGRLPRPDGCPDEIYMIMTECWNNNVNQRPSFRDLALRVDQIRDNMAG
In the next experiment the target is TBK1 (Homo sapiens (Human), UniProt Q9UHD2). In words: TBK1 TR-FRET enzymatic assay.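 Further: phosphorylation of a biotinylated Ser/Thr peptide by purified full-length recombinant TBK1, read by TR-FRET after 240 min at 25 °C, IC50 is the geometric mean of at least four runs.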
Sequence of TBK1 (Q9UHD2 whole entry): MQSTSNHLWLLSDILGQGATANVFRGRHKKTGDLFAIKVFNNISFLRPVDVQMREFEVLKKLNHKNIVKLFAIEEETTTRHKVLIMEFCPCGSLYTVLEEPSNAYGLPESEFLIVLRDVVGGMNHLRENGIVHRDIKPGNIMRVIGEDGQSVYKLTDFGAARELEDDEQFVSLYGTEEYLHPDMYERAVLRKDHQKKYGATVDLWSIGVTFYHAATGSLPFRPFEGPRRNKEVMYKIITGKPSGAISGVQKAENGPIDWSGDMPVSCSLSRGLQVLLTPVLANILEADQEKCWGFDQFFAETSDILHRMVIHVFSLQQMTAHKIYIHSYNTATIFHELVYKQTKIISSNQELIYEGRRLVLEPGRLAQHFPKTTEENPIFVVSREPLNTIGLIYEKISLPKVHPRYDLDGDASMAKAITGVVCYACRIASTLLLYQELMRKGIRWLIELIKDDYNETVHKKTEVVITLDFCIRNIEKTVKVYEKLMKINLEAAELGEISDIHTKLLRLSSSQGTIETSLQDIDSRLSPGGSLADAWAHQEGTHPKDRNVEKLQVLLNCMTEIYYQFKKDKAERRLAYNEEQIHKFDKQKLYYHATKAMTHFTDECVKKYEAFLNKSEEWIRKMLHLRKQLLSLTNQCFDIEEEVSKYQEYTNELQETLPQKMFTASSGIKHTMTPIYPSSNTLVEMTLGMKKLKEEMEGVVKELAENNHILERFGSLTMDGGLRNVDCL

This is an account of results in US10040781B2, “Tank-binding kinase inhibitor compounds” (Gilead Sciences, Inc., priority 2014, dated 2018).

Molecules are shown by their SMILES.

Sequence of IKKε (Q14164 whole entry): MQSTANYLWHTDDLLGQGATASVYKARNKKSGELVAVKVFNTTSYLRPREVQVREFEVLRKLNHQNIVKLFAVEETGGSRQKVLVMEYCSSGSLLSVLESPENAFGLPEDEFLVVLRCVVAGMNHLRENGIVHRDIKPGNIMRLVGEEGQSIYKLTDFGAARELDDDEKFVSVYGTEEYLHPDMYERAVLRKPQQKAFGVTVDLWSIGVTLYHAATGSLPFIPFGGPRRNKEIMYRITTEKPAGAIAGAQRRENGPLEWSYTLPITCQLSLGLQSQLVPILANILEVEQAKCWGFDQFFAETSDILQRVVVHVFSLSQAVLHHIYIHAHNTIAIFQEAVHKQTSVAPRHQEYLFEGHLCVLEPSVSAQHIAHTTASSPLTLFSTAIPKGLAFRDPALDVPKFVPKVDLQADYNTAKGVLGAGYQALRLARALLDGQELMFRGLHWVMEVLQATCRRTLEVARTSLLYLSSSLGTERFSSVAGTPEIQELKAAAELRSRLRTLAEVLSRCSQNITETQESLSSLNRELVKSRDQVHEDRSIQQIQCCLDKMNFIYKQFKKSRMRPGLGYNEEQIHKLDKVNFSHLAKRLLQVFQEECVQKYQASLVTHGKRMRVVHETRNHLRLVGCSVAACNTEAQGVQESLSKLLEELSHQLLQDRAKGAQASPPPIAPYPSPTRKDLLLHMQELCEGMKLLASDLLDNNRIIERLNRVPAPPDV

As usually defined, the IC50 is the midpoint of a concentration-inhibition curve. As to `C[C@H]1CN(C2COC2)CCN1c1ccc(Nc2ncnc(-c3ccc(O[C@H]4CCN(C(=O)CO)C[C@H]4F)c(C#N)c3)n2)cc1` [Example 244, 2-(((3R,4S)-3-fluoro-1-(2-hydroxyacetyl)piperidin-4-yl)oxy)-5-(4-((4-((S)-2-methyl-4-(oxetan-3-yl)piperazin-1-yl)phenyl)amino)-1,3,5-triazin-2-yl)benzonitrile], the results for the IC50 on IKKε, on hJAK2 and against TBK1 were 1 nM, 191 nM and 3 nM, respectively.

As for `C[C@H](O)C(=O)N1CC[C@H](Oc2ccc(-c3ncnc(Nc4ccc(N5CCN(C6COC6)[C@H](C)C5)cc4)n3)cc2C#N)C(F)(F)C1` [Example 246, 2-(((S)-3,3-difluoro-1-((S)-2-hydroxypropanoyl)piperidin-4-yl)oxy)-5-(4-((4-((R)-3-methyl-4-(oxetan-3-yl)piperazin-1-yl)phenyl)amino)-1,3,5-triazin-2-yl)benzonitrile], the IC50 came to 1 nM on IKKε, 181 nM on hJAK2 and 2 nM against TBK1.

With `C[C@@H]1CN(c2ccc(Nc3ncnc(-c4ccc(O[C@@H]5CCN(C(=O)[C@@H](C)O)CC5(F)F)c(C#N)c4)n3)cc2)CCN1C1COC1` [Example 247, 2-(((R)-3,3-difluoro-1-((R)-2-hydroxypropanoyl)piperidin-4-yl)oxy)-5-(4-((4-((R)-3-methyl-4-(oxetan-3-yl)piperazin-1-yl)phenyl)amino)-1,3,5-triazin-2-yl)benzonitrile], the IC50 on IKKε came out at 397 nM; on hJAK2, 333 nM; against TBK1 it was 233 nM.

In the case of `C[C@@H]1CN(c2ccc(Nc3ncnc(-c4ccc(O[C@H]5CCN(C(=O)[C@@H](C)O)CC5(F)F)c(C#N)c4)n3)cc2)CCN1C1COC1` [Example 248, 2-(((S)-3,3-difluoro-1-((R)-2-hydroxypropanoyl)piperidin-4-yl)oxy)-5-(4-((4-((R)-3-methyl-4-(oxetan-3-yl)piperazin-1-yl)phenyl)amino)-1,3,5-triazin-2-yl)benzonitrile], the values for the half-maximal inhibitory concentration (IC50) at IKKε, at hJAK2 and at TBK1 were 3 nM, 187 nM and 3 nM, respectively.

Consider `C[C@H](O)C(=O)N1CC[C@H](Oc2ccc(-c3ncnc(Nc4ccc(N5CCN(C6COC6)C[C@@H]5C)cc4)n3)cc2C#N)[C@H](F)C1` [Example 249, 2-(((3R,4S)-3-fluoro-1-((S)-2-hydroxypropanoyl)piperidin-4-yl)oxy)-5-(4-((4-((S)-2-methyl-4-(oxetan-3-yl)piperazin-1-yl)phenyl)amino)-1,3,5-triazin-2-yl)benzonitrile], for which the IC50 was determined as 2 nM at IKKε, 389 nM on hJAK2 and 3 nM against TBK1.

For `C[C@H]1CN(C2COC2)CCN1c1ccc(Nc2ncnc(-c3ccc(O[C@H]4CCN(C(=O)CC#N)C[C@H]4F)c(C#N)c3)n2)cc1` [Example 250, 2-(((3R,4S)-1-(2-cyanoacetyl)-3-fluoropiperidin-4-yl)oxy)-5-(4-((4-((S)-2-methyl-4-(oxetan-3-yl)piperazin-1-yl)phenyl)amino)-1,3,5-triazin-2-yl)benzonitrile], the IC50 at IKKε is 5 nM; at hJAK2, 127 nM; against TBK1, 3 nM.

In the case of `C[C@H]1CN(C2COC2)CCN1c1ccc(Nc2ncnc(-c3ccc(O[C@H]4CCN(C(=O)CCO)C[C@H]4F)c(C#N)c3)n2)cc1` [Example 251, 2-(((3R,4S)-3-fluoro-1-(3-hydroxypropanoyl)piperidin-4-yl)oxy)-5-(4-((4-((S)-2-methyl-4-(oxetan-3-yl)piperazin-1-yl)phenyl)amino)-1,3,5-triazin-2-yl)benzonitrile], the figures for the IC50 on IKKε, on hJAK2 and against TBK1 were 14 nM, 369 nM and 5 nM, respectively.

For `C[C@H](O)C(=O)N1CC[C@H](Oc2ccc(-c3ncnc(Nc4ccc(N5CCN(C6COC6)C[C@@H]5C)cc4)n3)cc2C#N)C(F)(F)C1` [Example 252, 2-(((S)-3,3-difluoro-1-((S)-2-hydroxypropanoyl)piperidin-4-yl)oxy)-5-(4-((4-((S)-2-methyl-4-(oxetan-3-yl)piperazin-1-yl)phenyl)amino)-1,3,5-triazin-2-yl)benzonitrile], the figures for the IC50 at IKKε, on hJAK2 and against TBK1 were 1 nM, 213 nM and 3 nM, respectively.

`C[C@H]1CN(C2COC2)CCN1c1ccc(Nc2ncnc(-c3ccc(O[C@H]4CCN(C(=O)CC#N)CC4(F)F)c(C#N)c3)n2)cc1` [Example 253, 2-(((S)-1-(2-cyanoacetyl)-3,3-difluoropiperidin-4-yl)oxy)-5-(4-((4-((S)-2-methyl-4-(oxetan-3-yl)piperazin-1-yl)phenyl)amino)-1,3,5-triazin-2-yl)benzonitrile]: the IC50 on IKKε was determined as 2 nM; at hJAK2 it was 61 nM; against TBK1, 3 nM.

As for `C[C@H]1CN(C2COC2)CCN1c1ccc(Nc2ncnc(-c3ccc(O[C@H]4CCN(C(=O)CCO)CC4(F)F)c(C#N)c3)n2)cc1` [Example 254, 2-(((S)-3,3-difluoro-1-(3-hydroxypropanoyl)piperidin-4-yl)oxy)-5-(4-((4-((S)-2-methyl-4-(oxetan-3-yl)piperazin-1-yl)phenyl)amino)-1,3,5-triazin-2-yl)benzonitrile], the figures for the IC50 at IKKε, at hJAK2 and against TBK1 were 5 nM, 151 nM and 3 nM, respectively.

On to `C[C@H]1CN(C2COC2)CCN1c1ccc(Nc2ncnc(-c3ccc(O[C@H]4CCN(C(=O)c5cnn[nH]5)C[C@H]4F)c(C#N)c3)n2)cc1` [Example 255, 2-(((3R,4S)-3-fluoro-1-(1H-1,2,3-triazole-5-carbonyl)piperidin-4-yl)oxy)-5-(4-((4-((S)-2-methyl-4-(oxetan-3-yl)piperazin-1-yl)phenyl)amino)-1,3,5-triazin-2-yl)benzonitrile], for which the IC50 amounted to 2 nM on IKKε, 227 nM on hJAK2 and 4 nM against TBK1.

Regarding `C[C@H]1CN(C2COC2)CCN1c1ccc(Nc2ncnc(-c3ccc(O[C@H]4CCN(C(=O)c5cnc[nH]5)C[C@H]4F)c(C#N)c3)n2)cc1` [Example 256, 2-(((3R,4S)-3-fluoro-1-(1H-imidazole-5-carbonyl)piperidin-4-yl)oxy)-5-(4-((4-((S)-2-methyl-4-(oxetan-3-yl)piperazin-1-yl)phenyl)amino)-1,3,5-triazin-2-yl)benzonitrile], the IC50 at IKKε amounted to 1 nM; at hJAK2, 144 nM; at TBK1, 3 nM.

On to `C[C@H]1CN(C2COC2)CCN1c1ccc(Nc2ncnc(-c3ccc(O[C@H]4CCN(C(=O)c5ccn[nH]5)C[C@H]4F)c(C#N)c3)n2)cc1` [Example 257, 2-(((3R,4S)-3-fluoro-1-(1H-pyrazole-5-carbonyl)piperidin-4-yl)oxy)-5-(4-((4-((S)-2-methyl-4-(oxetan-3-yl)piperazin-1-yl)phenyl)amino)-1,3,5-triazin-2-yl)benzonitrile], for which the IC50 amounted to 1 nM at IKKε, 270 nM on hJAK2 and 2 nM at TBK1.

With `C[C@H]1CN(C2COC2)CCN1c1ccc(Nc2ncnc(-c3ccc(O[C@H]4CCN(C(=O)c5cnc[nH]5)CC4(F)F)c(C#N)c3)n2)cc1` [Example 259, 2-(((S)-3,3-difluoro-1-(1H-imidazole-5-carbonyl)piperidin-4-yl)oxy)-5-(4-((4-((S)-2-methyl-4-(oxetan-3-yl)piperazin-1-yl)phenyl)amino)-1,3,5-triazin-2-yl)benzonitrile], the IC50 on IKKε came out at 1 nM; on hJAK2, 66 nM; against TBK1 it was 3 nM.

As to `C[C@H](O)C(=O)N1CC[C@H](Oc2ccc(-c3ncnc(Nc4ccc(N5CCN(C6COC6)[C@@H](C)C5)cc4)n3)cc2C#N)C(F)(F)C1` [Example 262, 2-(((S)-3,3-difluoro-1-((S)-2-hydroxypropanoyl)piperidin-4-yl)oxy)-5-(4-((4-((S)-3-methyl-4-(oxetan-3-yl)piperazin-1-yl)phenyl)amino)-1,3,5-triazin-2-yl)benzonitrile], the values for the IC50 on IKKε, on hJAK2 and against TBK1 were 1 nM, 156 nM and 2 nM, respectively.

On to `C[C@H]1CN(c2ccc(Nc3ncnc(-c4ccc(O[C@H]5CCN(C(=O)c6cnn[nH]6)C[C@H]5F)c(C#N)c4)n3)cc2)CCN1C1COC1` [Example 263, 2-(((3R,4S)-3-fluoro-1-(1H-1,2,3-triazole-5-carbonyl)piperidin-4-yl)oxy)-5-(4-((4-((S)-3-methyl-4-(oxetan-3-yl)piperazin-1-yl)phenyl)amino)-1,3,5-triazin-2-yl)benzonitrile], for which the IC50 at IKKε is 3 nM; on hJAK2 it was 158 nM; on TBK1 it was 3 nM.

With `C[C@H](O)C(=O)N1CC[C@H](Oc2ccc(-c3ncnc(Nc4ccc(N5CCN(C6COC6)[C@@H](C)C5)cc4)n3)cc2C#N)[C@H](F)C1` [Example 264, 2-(((3R,4S)-3-fluoro-1-((S)-2-hydroxypropanoyl)piperidin-4-yl)oxy)-5-(4-((4-((S)-3-methyl-4-(oxetan-3-yl)piperazin-1-yl)phenyl)amino)-1,3,5-triazin-2-yl)benzonitrile], the IC50 on IKKε came out at 1 nM; at hJAK2 it was 296 nM; against TBK1, 2 nM.

With `C[C@H](O)C(=O)N1CC[C@H](Oc2ccc(-c3ncnc(Nc4ccc(N5C[C@@H](C)N(C6COC6)C[C@@H]5C)cc4)n3)cc2C#N)[C@H](F)C1` [Example 265, 5-(4-((4-((2S,5R)-2,5-dimethyl-4-(oxetan-3-yl)piperazin-1-yl)phenyl)amino)-1,3,5-triazin-2-yl)-2-(((3R,4S)-3-fluoro-1-((S)-2-hydroxypropanoyl)piperidin-4-yl)oxy)benzonitrile], the IC50 at IKKε was 4 nM; on hJAK2 it was 426 nM; against TBK1 it was 5 nM.

On to `Cc1ncc(C(=O)N2CC[C@H](Oc3ccc(-c4ncnc(Nc5ccc(N6CCN(C7COC7)CC6)cc5)n4)cc3C#N)[C@H](F)C2)n1C` [Example 266, 2-(((3R,4S)-1-(1,2-dimethyl-1H-imidazole-5-carbonyl)-3-fluoropiperidin-4-yl)oxy)-5-(4-((4-(4-(oxetan-3-yl)piperazin-1-yl)phenyl)amino)-1,3,5-triazin-2-yl)benzonitrile], for which the IC50 was found to be 83 nM on IKKε, 387 nM on hJAK2 and 82 nM at TBK1.
